What was measured:
[1] = system: dermal microvascular endothelial cells (hDMVECs); assay: hDMVEC proliferation assay; assay type: cell-based, human
Protocol: Proliferation assays with BCECs and BRECs were performed. Log-phase growing BCECs or BRECs (passage <10) were trypsinized, re-suspended and seeded in 96-well plates (no coating) in low-glucose DMEM supplemented with 10% bovine calf serum, 2 mM glutamine, and antibiotics (growth medium), at a density of 1200-1500 cells per well in 200 μl volume. All reagents were added at the indicated final concentrations. After 3-6 days, cells were incubated with AlamarBlue for 4 hrs. Fluorescence was measured at 530 nm excitation wavelength and 590 nm emission wavelength. The experiments were repeated at least three times. To create a hypoxic condition, cells were placed in a hypoxia incubator with a mixture of gas consisting of 1% 02, 5% CO2 and 94% Nz. On each 96-well plate, untreated and VEGF-treated (10/ng/ml) wells were included to monitor plate-to-plate variations. 20% methanol or 0.05% DMSO served as negative controls. 0.05% DMSO served as negative controls when Cas was tested in these cells. Human RMVECs and human adult DMVECs were split into Gelatin-coated 96 wells (2000 cells per well) in low glucose DMEM containing 10% FBS. 1200 cells/well was set up for proliferation assay in low glucose media containing FBS. Data was collected at day 4 or 5. HUVEC (p7-10) were grown on gelatin-coated plate until it reached 70-80% confluency.
(§1) Proliferation assays with fibroblasts were done in low-glucose DMEM containing 1% FBS, with or without 10 ng/ml bFGF, or 100 ng/ml human EGF and the assay was ended at day 3. ARPE-19 cells were gently lifted with 0.025% trypsin and plated in RtEGM media (Clonetics) containing 2% FBS, L-glutamine, human bFGF and GA-1000. Once cells were attached to plates, serum-free RtEGM media was used to maintain the cultures. For proliferation assays, 1500 human RPE cells were plated into 96-well plates in low-glucose DMEM containing 1% FBS. […] Four days later, tumor cell growth was measured by the MTS assay (Promega, Madison, WI), a colorimetric assay that measures metabolic activity of viable cells. […]

HUVEC = HUVEC migration assay; assay type: cell-based, human; details: 40 uM ManN alone
Protocol: HUVECs (passage 6-8) were cultured and serum-starved as described in “Western Blots”. Ten thousand cells in 150 μl of EBM-2 medium were then added to the upper chamber of 8 μm pore size cell culture inserts (Falcon) coated with 0.1% gelatin. The lower compartment was filled with 600 μl EBM-2 medium containing various agents. The plates were incubated at 37° C. to allow migration. After 4 hrs, cells were fixed with 4% PFA for 20 min and then stained with crystal violet (Sigma-Aldrich) for 20 min at RT. Migrated cells on the bottom side of the insert membrane were quantified by counting whole area of the insert at 40× magnification. The experiments were carried out in triplicate and repeated three times. BCEC migration was set up similarly, except that wells were coated with FN, cells were suspended in 1% serum media and migration time was 18-24 hrs.

human keratinocytes = assay: Human keratinocyte proliferation assay; assay type: cell-based
Protocol: as §1, with “FBS. A673, U87MG, Calu6 and AML12 cells were grown until confluent and were then harvested and re-suspended in appropriate assay media. For proliferation assays, cells were plated at the density of 1000-2000 cells/well in low-glucose DMEM containing 5% FBS or otherwise stated. Bovine pituitary cells (pituitary folliculostellate cells) were isolated as previously described. For proliferation assays with human epidermal keratinocytes, human DMVECs and human dermal fibroblast cells, 1000 cells/well were plated in low-glucose DMEM containing 1% FBS with or without various growth factors. The assay was ended at day 3 for bovine pituitary cells and at day 4 for all the other cell types.” for “FBS.”

SMILES: N[C@H](C=O)[C@@H](O)[C@H](O)[C@H](O)CO [ManN, 2-Amino-2-deoxy-D-mannose]
- hDMVECs growth ([1]; ManN by itself): stimulated
- additivity with VEGF on proliferation ([1]; hDMVECs): dose-dependent additivity with VEGF
- toxicity ([1]; hDMVECs, at 5 mM): minimal toxicity
- HUVEC migration (HUVEC): stimulation of migration
- cellular toxicity, sensitivity among cell types (human keratinocytes; 5 mM level of ManN): least sensitive
- proliferation of human keratinocytes (human keratinocytes; alone or in combination with growth factors): no increases in proliferation

From patent US20230390315A1, “COMPOSITIONS AND METHODS FOR TREATING ISCHEMIC CONDITIONS” (The Regents of the University of California, priority 2020, published 2023)
